Measurements from US8512943B2, “Accessing the toxic potential of nanomaterials” (The Regents of the University of California, priority 2005, dated 2013).

Legend:
[1] = system: RAW 264.7 cells; experiment: DCF fluorescence (H2O2 production), flow cytometry; assay type: cell-based, mouse
Description: (§2) RAW 264.7 cells were cultured in a 5% CO2 in Dulbecco's Modified Eagle Medium (DMEM) containing 10% FCS, 5000 U/ml penicillin, 500 μg/ml streptomycin, and 2 mM L-glutamine (complete medium). For exposure to NP, aliquots of 3×10^5 cells were cultured in 24-well plates in 0.5 ml of medium at 37° C. for the indicated time periods. All the NP solutions were prepared fresh from stock solutions (10 mg/ml) and the solutions were sonicated for 10 sec before addition to cell cultures.
Cells were stained with the fluorescent dyes diluted in DMEM. […] DiOC6 and Fluo-3 fluorescence were analyzed in the FL-1 channel, while PI, Rhod-2 and MitoSOX red fluorescence were analyzed in FL-2. HE fluorescence was analyzed using FL-3 channels. Monobromobimane fluorescence was excited by the UV laser tuned to 325 nm, and emission was measured at 510 nm (FL-4 channel) in the LSR flow cytometer. […]
The fold-increase in mean fluorescence intensity (MFI) of DCF was expressed as the ratio of particle-treated vs. control cells (FIG. 8A).

[2] = system: RAW 264.7 cells; experiment: MitoSOX Red fluorescence (mitochondrial superoxide production), flow cytometry; assay type: cell-based, mouse
Description: as §2

[3] = system: HO-1; experiment: HO-1 expression by immunoblotting; assay type: cell-based, mouse
Description: GAPDH immunoblotting was used to ascertain equal protein loading (lower panels).
For Western blotting, 100 μg of total protein was separated by 10% SDS-PAGE and transferred to a PVDF membrane. After blocking, the membranes were incubated with primary antibodies against HO-1, phospho-JNK or JNK. The membranes were overlayed with secondary antibody before the addition of the HRP-conjugated avidin-biotin complex. The proteins were detected using ECL reagent according to the manufacturer's instructions. Protein abundance was quantified by densitometric scanning using a laser Personal Densitometer SI and Image Quant software (Amersham Biosciences).

[4] = system: TNF-α; experiment: TNF-α production by ELISA; assay type: cell-based, mouse
Text: Triplicate aliquots of RAW 264.7 cells were exposed to NP for 6 hr. The culture media were collected, centrifuged to remove all debris and the resultant supernatant assayed by ELISA for TNF-α and Western blotting for Jun kinase.

[5] = system: RAW 264.7 cells; experiment: Propidium iodide (PI) uptake, cellular toxicity; assay type: cell-based
Description: (§1) Cells were stained with the fluorescent dyes diluted in DMEM. The following dye combinations were added for 15-30 min at 37° C. in the dark: (i) 47.5 μg/ml propidium iodide (PI) in 200 μl DMEM (assessment of cell death); (ii) 20 nM DiOC6 (assessment of Δψm); (iii) 2 μM MitoSOX™ red (superoxide generation) or 2 μM hydroethidine (HE, superoxide production); (iv) 2.5 μM 2,7 dichlorofluorescein (DCF, mostly assesses H2O2 production); (v) 5 μM Fluo-3 (assess cytoplasmic free calcium); (vi) 4 μM Rhod-2 (mitochondrial free calcium); (vii) 40 μM monobromobimane (MBB, assess intracellular thiol levels). Flow cytometry was performed using a FACScan (Becton Dickinson, Mountain View, Calif.) equipped with a single 488 nm argon laser. DiOC6 and Fluo-3 fluorescence were analyzed in the FL-1 channel, while PI, Rhod-2 and MitoSOX red fluorescence were analyzed in FL-2. HE fluorescence was analyzed using FL-3 channels. Monobromobimane fluorescence was excited by the UV laser tuned to 325 nm, and emission was measured at 510 nm (FL-4 channel) in the LSR flow cytometer. Forward and side scatter were used to gate out cellular fragments.
Large-scale PTP opening leads to mitochondrial depolarization, O2.^− production and the release of pro-apoptotic factors. Cellular toxicity was assessed by PI staining (FIG. 18C).

[6] = system: RAW 264.7 cells
Description: Electron microscopy was performed as previously described (Yang A H, et al., In Vitro Cell Dev Biol 23:34-46, 1987). Thin sections were cut with a Reichert-Jung ultracut and ultramicrotome (Leica, Stuttgart, Germany). Copper grids were stained with lead citrate and uranyl acetate and photographed in a Hitachi electron microscope (Hitachi Instrument Inc., Tokyo, Japan).

[7] = system: RAW 264.7 cells; experiment: DiOC6 fluorescence, mitochondrial membrane potential (Δψm); assay type: cell-based
Description: as §1
Toxic oxidative stress can perturb mitochondrial function in a number of ways, including disruption of electron flow in the inner membrane, dissipation of the mitochondrial membrane potential (Δψm), mitochondrial Ca^2+ uptake, and large-scale opening of the PTP. […]

CC(=O)N[C@@H](CS)C(=O)O [NAC, N-acetylcysteine]
effect on ROS production by NH2-PS particles [1]: effectively disrupted
effect on UFP-induced H2O2 production ([1]; pretreatment, 4 and 16 hrs): significantly suppressed
effect on NH2-PS ROS response ([2]; 8 hrs): failed to suppress
effect on NH2-PS ROS response ([2]; 16 hrs): did interfere
effect on UFP-induced O2.− generation ([2]; all time points): could interfere
effect on induction of HO-1 expression by NP [3]: suppressed
effect on UFP-induced TNF-α production ([4]; pre-treatment 2 hr, then UFP 6 hr): capable of interfering
effect on cytotoxicity of UFP and NH2-PS [5]: could interfere

C[S+]([O-])CCCCN=C=S (stereo not drawn) [SFN, Sulforaphane]
HO-1 expression after prior treatment ([3]; without NP): resulted in HO-1 expression
effect of prior treatment on TNF-α production ([4]; pre-treatment 4 hr, then UFP 6 hr): interference

Carbon Black
cellular uptake, subcellular localization and mitochondrial damage [6]: taken up in phagosomes without mitochondrial damage

Polymyxin B [PMB]
effect on LPS-induced TNF-α response ([4]; 6 hr): significant suppression
effect on UFP TNF-α response ([4]; 6 hr): small effect

titanium dioxide [TiO2]
DiOC6 fluorescence (Δψm) [7]: failed to exert an influence
cellular uptake, subcellular localization and mitochondrial damage [6]: taken up into loose-fitting phagosomes without noticeable mitochondrial damage
